Measurements from paper PMC4492579, “Potent and Selective Triazole-Based Inhibitors of the Hypoxia-Inducible Factor Prolyl-Hydroxylases with Activity in the Murine Brain” (PLoS ONE, 2015).
Counter-ions that a name gives are not always drawn. Like-named read-outs stand apart in the source and are kept apart here.

Assays:
[1] = tested on: MCF-7, Hep3B and U2OS cells; experiment: Immunoblotting of HIF1α induction in MCF-7, Hep3B and U2OS cells; assay type: cell-based, human; settings: immunoblot
Protocol: (§1) Human cell lines (RCC4, HeLa, Hep3B, MCF-7 and U2OS) were cultured in DMEM (D6546-500ML; Sigma Aldrich) each supplemented with 10% fetal bovine serum (F7524-500ML; Sigma Aldrich), 2 mM L-glutamine (G7513- 100ML; Sigma Aldrich), 50 units/ml of penicillin, and 50 μg/ml of streptomycin (P0781-100ML; Sigma Aldrich). The RCC4 cell line was a gift from C.H.C.M. Buys (University of Groningen, [2]), the HeLa and Hep3B cell lines were from the European Collection of Cell Cultures (ECACC), the MCF-7 cell line was from the American Type Culture Collection (ATCC) and the U2OS cell line was a gift from S.Galey (ICRF Clare Hall Laboratories, United Kingdom). Cells were treated either with DMSO (control) or compounds (dissolved in DMSO) and added directly into the cell culture medium to the desired final concentration for 4–5 h as previously described.
Cells were extracted using urea/SDS buffer (6.7 M urea, 10 mM Tris-HCl pH 6.8, 10% glycerol and 1% SDS) and processed for immunoblotting as described. […]

Hep3B = experiment: Quantitative HIF1α MSD immunoassay, Hep3B; assay type: cell-based; settings: Homo sapiens, read-out: HIF1α EC50
Protocol: Cells were seeded into 96-well cell culture plates (150 μl culture volume) at approximately 60–70% confluency at least 12 h prior to the compound treatment. Half of the culture medium (75 μl/well) were removed and 75 μl/well of medium containing the desired concentrations of compounds were added into cells for 5 h. The cell medium was then removed and the cells were washed once with phosphate buffered saline (PBS), followed by the addition of lysis buffer (20 mM Tris pH 7.4, 450 mM NaCl, 1 mM EDTA, 1 mM EGTA, 0.5% Triton X-100, 1x complete protease inhibitor cocktail and 100 μM DFO). Plates were then left at 4°C with shaking. […] Plates were washed thrice with Tris Wash Buffer, added with 150 μl/well 2X Read Buffer (R92TC, Meso Scale Discovery) before being read with an MSD Sector S600 plate reader (Meso Scale Discovery). Signals generated were normalized to “lysis buffer-only” controls.
To quantify the cellular efficiency of PHD inhibition, we developed an electrochemiluminescence-based assay for the quantification of HIF1α levels using the Meso Scale Discovery (MSD, http://www.mesoscale.com) technology (HIF1α MSD assay), which is based on the capture and detection of HIF1α protein using two specific HIF1α antibodies. […]

FTO = FTO (Homo sapiens, UniProt Q9C0B1); experiment: FTO LC-MS assay
Protocol: (§2) Inhibition assays for PHD2 (AlphaScreen) [9], the KDMs (AlphaScreen) [17], BBOX [18] and FTO [19] were carried out as previously described. N-Terminally biotinylated 19-residue human HIF1α CODD peptide ([sequence]) used in the PHD2 inhibition assays was from GL Biochem (Shanghai). IC50 values were calculated using nonlinear regression with normalized dose-response fit using GraphPad Prism 5.

BBOX1 = target: T1, BBOX1 (Homo sapiens, UniProt O75936); experiment: BBOX fluoride-release / detection based fluorescence assay
T1 sequence (O75936 1-387): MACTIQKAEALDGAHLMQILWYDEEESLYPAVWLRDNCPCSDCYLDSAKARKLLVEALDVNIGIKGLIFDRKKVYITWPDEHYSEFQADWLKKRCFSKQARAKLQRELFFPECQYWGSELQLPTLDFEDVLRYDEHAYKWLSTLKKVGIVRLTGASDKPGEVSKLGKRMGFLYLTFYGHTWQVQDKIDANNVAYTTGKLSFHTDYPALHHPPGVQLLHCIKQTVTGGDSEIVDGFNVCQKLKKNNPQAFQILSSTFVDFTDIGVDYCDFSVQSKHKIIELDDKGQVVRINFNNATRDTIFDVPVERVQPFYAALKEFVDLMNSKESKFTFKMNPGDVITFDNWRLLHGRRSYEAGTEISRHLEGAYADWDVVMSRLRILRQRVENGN
Protocol: as §2

PHD2 = PHD2 (Homo sapiens, UniProt Q9GZT9); experiment: PHD2 antibody-based (AlphaScreen) in vitro hydroxylation assay
Protocol: as §2

RCC4 cells = experiment: Immunoblotting of HIF1α hydroxylation in VHL-defective RCC4 cells; assay type: cell-based, human; settings: immunoblot
Protocol: as §1
Cells were extracted using urea/SDS buffer (6.7 M urea, 10 mM Tris-HCl pH 6.8, 10% glycerol and 1% SDS) and processed for immunoblotting as described. The following primary antibodies were used for immunoblotting: mouse monoclonal HIF1α antibody clone 54 (610958, BD Transduction Laboratories, 1:1000), rabbit polyclonal HIF1α hydroxy-Pro402 antibody (07–1585, Millipore, 1:1000), rabbit monoclonal HIF1α hydroxy-Pro564 antibody clone D43B5 (3434S, Cell Signaling, 1:500), mouse monoclonal HIF1α hydroxy-Asn803 antibody (a kind gift from Dr M. K. Lee, Republic of Korea, 1:4000), mouse monoclonal PHD2 antibody clone 76a (1:10), mouse monoclonal FIH antibody clone 162c (1:200) and β-actin/HRP (clone AC15, Abcam). HRP-conjugated swine polyclonal anti-rabbit IgG (P0399, Dako), and goat polyclonal anti-mouse IgG (P0447, Dako) were used as secondary antibodies.
In this cell line, the extent of the differential HIF1α prolyl hydroxylation at the N-terminal and C-terminal oxygen-dependent degradation domains (HyPro402 and HyPro564, respectively), as well as HIF1α asparaginyl hydroxylation at the C-terminal transactivation domain (HyAsn803) can be interrogated by immunoblotting using hydroxylation specific antibodies.

Sequence of FTO (Q9C0B1 whole entry): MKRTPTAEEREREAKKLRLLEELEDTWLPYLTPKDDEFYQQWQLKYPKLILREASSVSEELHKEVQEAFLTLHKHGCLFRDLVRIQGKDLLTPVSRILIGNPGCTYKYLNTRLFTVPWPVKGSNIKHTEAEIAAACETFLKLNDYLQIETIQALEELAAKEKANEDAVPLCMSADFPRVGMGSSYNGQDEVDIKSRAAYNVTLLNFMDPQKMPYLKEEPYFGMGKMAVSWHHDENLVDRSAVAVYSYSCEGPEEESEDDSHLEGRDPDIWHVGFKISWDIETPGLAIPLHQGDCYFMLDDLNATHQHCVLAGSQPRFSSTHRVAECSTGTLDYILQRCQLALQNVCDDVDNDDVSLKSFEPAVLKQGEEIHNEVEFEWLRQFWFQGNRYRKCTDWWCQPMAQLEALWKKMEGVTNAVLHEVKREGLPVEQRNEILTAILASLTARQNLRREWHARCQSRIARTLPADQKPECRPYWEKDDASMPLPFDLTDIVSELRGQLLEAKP
Sequence of PHD2 (Q9GZT9 whole entry): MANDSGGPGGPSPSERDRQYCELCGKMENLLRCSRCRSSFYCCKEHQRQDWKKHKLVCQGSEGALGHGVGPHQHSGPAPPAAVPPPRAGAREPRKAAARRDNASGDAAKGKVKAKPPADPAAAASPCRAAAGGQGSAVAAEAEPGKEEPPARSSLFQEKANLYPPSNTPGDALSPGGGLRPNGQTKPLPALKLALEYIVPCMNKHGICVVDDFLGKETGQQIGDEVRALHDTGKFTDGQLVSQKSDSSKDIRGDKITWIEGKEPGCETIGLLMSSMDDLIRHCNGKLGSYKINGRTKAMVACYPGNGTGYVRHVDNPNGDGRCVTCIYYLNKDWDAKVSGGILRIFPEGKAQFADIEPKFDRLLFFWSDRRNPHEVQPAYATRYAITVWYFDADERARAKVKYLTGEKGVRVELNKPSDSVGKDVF

Row | SMILES | HIF1α induction [1] | EC50 (Hep3B; 5 h treatment, MSD assay) | IC50 (FTO) | IC50 (BBOX1) | selectivity for PHD2 over all other tested enzymes (PHD2; from IC50 values of the 2OG oxygenase panel (Table 1)) | HIF1α prolyl-hydroxylation (HyPro402, HyPro564) (RCC4 cells) | HIF1α asparaginyl-hydroxylation (HyAsn803) (RCC4 cells; 50 μM) | EC50 (Hep3B; 5 h) | IC50 (PHD2)
1 | O=C(O)CNC(=O)c1c(O)c2ccccc2n(Cc2ccccc2)c1=O [IOX2] | Induction of HIF1α levels were observed | 86 µM | 11 µM | 9.5 µM | approximately 400 fold |  |  |  | 
2 | CC(C)(C)OC(=O)c1ccc(-n2[nH]cc(-n3ccnn3)c2=O)nc1 [IOX4, t-Butyl 6-(5-oxo-4-(1H-1,2,3-triazol-1-yl)-2,5-dihydro-1H-pyrazol-1-yl)nicotinate] | Induction of HIF1α levels were observed |  | 49 µM | 73 µM |  | block prolyl-hydroxylation of HIF1α at both NODD (HyPro402) and CODD (HyPro564) | some apparent inhibition | 11.1 µM | 0.0016 µM
3 | O=C(O)c1ccc(-n2[nH]cc(-n3ccnn3)c2=O)nc1 [compound 1, 6-(5-oxo-4-(1H-1,2,3-triazol-1-yl)-2,5-dihydro-1H-pyrazol-1-yl)pyridine-3-carbocylic acid hydrochloride] |  |  | 37 µM | > 50 µM |  | block prolyl-hydroxylation of HIF1α at both NODD (HyPro402) and CODD (HyPro564) |  |  | 0.0048 µM
